Laboratory results published in patent US6770467B2, “Screening method for ligands with class II P13 kinase modulating activity” (Ludwig Institute for Cancer Research, priority 1997, dated 2004).
Where two headings read alike, the source gives them in different places.

Assays:
PI3K-C2α = target: T1, PI3K-C2α (Homo sapiens, UniProt O00443); test: PI 3-kinase lipid kinase assay with recombinant GST-PI3K-C2α, PtdIns as substrate; format: biochemical
T1 construct: made in house; host or cells: Sf9 insect cells (baculovirus, pAcGex vector)
Experimental: Typically, PI 3-kinase assays were performed in a total volume of 50 μl containing 20 mM Hepes pH7.4. 100 mM NaCl, 0.1 mM EGTA, 0.1% β-mercaptoethanol, and 200 μM phosphoinositide. After preincubating sonicated lipid with sample for 10 minutes, the reactions were initiated upon the addition of 2.5 mM MgCl2, 100 mM ATP (0.2 μCiγ[^32 P] ATP). Assays were incubated at 30° C. for 20 minutes and terminated with acidified chloroform:methanol. The extracted lipid products were analysed by thin layer chromatography using Silica gel 60 plates and chloroform:methanol:4M ammonium hydroxide (45:35:10) for assays examining phosphorylation of Ptdlns. When separations of PtdIns 3P, PtdIns (3,4) P2 and PItdIns (3,4,5) P3 was required, propan-1-ol: 2M acetic acid (65:35) was used. Phosphorylated lipids were visualised by either autoradiography or by phosphoimage analysis (Molecular Dynamics).
The enzymatic activity and substrate specificity were investigated and compared to that of GST-p110α expressed in the same system.
(§1) The effect of these inhibitors on the lipid kinase activity of PI3K-C2α was examined, using PtdIns as a substrate, in the presence of increasing concentrations of each inhibitor.

p110α = p110α (UniProt P32871); test: PI 3-kinase lipid kinase assay with recombinant GST-p110α, PtdIns as substrate; format: biochemical
Experimental: Typically, PI 3-kinase assays were performed in a total volume of 50 μl containing 20 mM Hepes pH7.4. 100 mM NaCl, 0.1 mM EGTA, 0.1% β-mercaptoethanol, and 200 μM phosphoinositide. After preincubating sonicated lipid with sample for 10 minutes, the reactions were initiated upon the addition of 2.5 mM MgCl2, 100 mM ATP (0.2 μCiγ[^32 P] ATP). Assays were incubated at 30° C. for 20 minutes and terminated with acidified chloroform:methanol. The extracted lipid products were analysed by thin layer chromatography using Silica gel 60 plates and chloroform:methanol:4M ammonium hydroxide (45:35:10) for assays examining phosphorylation of Ptdlns. When separations of PtdIns 3P, PtdIns (3,4) P2 and PItdIns (3,4,5) P3 was required, propan-1-ol: 2M acetic acid (65:35) was used. Phosphorylated lipids were visualised by either autoradiography or by phosphoimage analysis (Molecular Dynamics). Assays were linear with respect to time and enzyme addition.
as §1

T1 sequence (O00443 148-1686): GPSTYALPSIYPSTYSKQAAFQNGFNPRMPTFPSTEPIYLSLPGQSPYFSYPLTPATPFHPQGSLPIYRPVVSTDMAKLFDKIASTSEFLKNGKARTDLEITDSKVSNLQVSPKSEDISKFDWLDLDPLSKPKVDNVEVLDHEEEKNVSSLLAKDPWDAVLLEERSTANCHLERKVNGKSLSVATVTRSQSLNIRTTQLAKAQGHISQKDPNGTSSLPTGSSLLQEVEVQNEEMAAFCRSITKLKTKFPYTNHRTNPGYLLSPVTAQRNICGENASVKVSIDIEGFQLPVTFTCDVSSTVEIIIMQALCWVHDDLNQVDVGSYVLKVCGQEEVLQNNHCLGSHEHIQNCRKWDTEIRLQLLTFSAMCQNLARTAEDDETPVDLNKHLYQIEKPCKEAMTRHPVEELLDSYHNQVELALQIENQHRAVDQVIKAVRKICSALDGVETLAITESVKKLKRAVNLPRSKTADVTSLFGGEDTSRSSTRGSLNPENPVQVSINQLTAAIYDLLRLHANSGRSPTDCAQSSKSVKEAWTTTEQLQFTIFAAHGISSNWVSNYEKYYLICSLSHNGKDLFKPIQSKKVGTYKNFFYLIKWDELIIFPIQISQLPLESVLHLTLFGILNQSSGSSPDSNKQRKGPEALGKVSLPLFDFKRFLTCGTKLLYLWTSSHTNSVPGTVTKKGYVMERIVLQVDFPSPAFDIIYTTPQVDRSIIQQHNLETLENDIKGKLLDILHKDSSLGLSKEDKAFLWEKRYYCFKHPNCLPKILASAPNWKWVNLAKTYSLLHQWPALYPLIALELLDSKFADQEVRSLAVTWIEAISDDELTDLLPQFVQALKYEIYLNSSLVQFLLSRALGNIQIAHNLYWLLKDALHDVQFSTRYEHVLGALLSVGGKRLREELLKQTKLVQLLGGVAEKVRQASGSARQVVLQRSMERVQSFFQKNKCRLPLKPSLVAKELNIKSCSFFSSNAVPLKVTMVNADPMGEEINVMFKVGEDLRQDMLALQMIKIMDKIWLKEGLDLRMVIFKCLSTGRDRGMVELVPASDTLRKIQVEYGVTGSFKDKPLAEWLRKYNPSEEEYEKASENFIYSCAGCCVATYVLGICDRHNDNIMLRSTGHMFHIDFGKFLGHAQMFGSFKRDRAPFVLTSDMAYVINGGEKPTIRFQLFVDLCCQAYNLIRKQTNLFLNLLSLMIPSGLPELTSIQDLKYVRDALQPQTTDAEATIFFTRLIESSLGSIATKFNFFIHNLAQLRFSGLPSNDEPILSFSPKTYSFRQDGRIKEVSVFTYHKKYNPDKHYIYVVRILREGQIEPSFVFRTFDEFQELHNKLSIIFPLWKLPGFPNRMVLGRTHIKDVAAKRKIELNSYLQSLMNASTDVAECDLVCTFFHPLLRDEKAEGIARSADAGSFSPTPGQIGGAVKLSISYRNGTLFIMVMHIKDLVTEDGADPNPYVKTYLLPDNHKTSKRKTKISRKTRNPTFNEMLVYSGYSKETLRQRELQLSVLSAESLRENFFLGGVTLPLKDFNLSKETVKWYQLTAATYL

Row | IC50 (PI3K-C2α) | difference in sensitivity between PI3K-C2α and p110α (PI3K-C2α; LY294002, PI3K-C2α less sensitive than p110α) | concentration giving maximal attenuation of PI3K-C2α lipid kinase activity (PI3K-C2α; LY294002, PtdIns substrate) | concentration giving maximal inhibition of p110α (p110α; LY294002, FIG. 5B) | SMILES | IC50 (PI3K-C2α; Wortmannin, PtdIns substrate, FIG. 5A) | IC50 (p110α; read-out: IC50 of p110α lipid kinase activity, Wortmannin, FIG. 5A)
1 | 20000 nM | approximately one order of magnitude | 2 mM | 300 µM | O=c1cc(N2CCOCC2)oc2c(-c3ccccc3)cccc12 [LY294002, 2-(4-morpholinyl)-8-phenyl-4H-1-benzopyran-4-one] |  | 
2 |  |  |  |  | COC[C@H]1OC(=O)c2coc3c2[C@@]1(C)C1=C(C3=O)[C@@H]2CCC(=O)[C@@]2(C)C[C@H]1OC(C)=O [Wortmannin] | 200 nM | 3 nM
